Source: patent publication US11440886B2, “Anti-inflammatory compound, and preparation and use thereof” (E-Nitiate Biopharmaceuticals (Hangzhou) Co., Ltd., priority 2018, dated 2022)

Target: human recombinant PDE4B1 enzyme (Homo sapiens (Human), UniProt Q07343)
Assay: Inhibition of PDE4B1 activity by cAMP HTRF assay
Format: biochemical
Conditions: human recombinant PDE4B1, cAMP 40 nM, pH 7.4
Procedure: Determination of the inhibition of the compounds on PDE4B1 activity by using cAMP HTRF® assay
The inhibitory effect of the compounds on human PDE4B1 enzyme activity was determined by quantifying the 5′-adenosine monophosphate (5′-AMP) formed from 3′,5′-cyclic adenosine monophosphate (cAMP).
The test compound or water (control) and human recombinant PDE4B1 enzyme (4.8 U) were mixed in a buffer solution (pH 7.4) consisting of 1× Hanks' balanced salt solution (HBSS), 5 mM HEPES, 3 mM MgCl2, and 0.1% BSA and incubated for 10 min. A cAMP enzyme substrate (final concentration 40 nM) was added, and the mixture was incubated at room temperature for 60 min. Then a fluorescent acceptor (Dye2 labeled with cAMP), a fluorescent donor (anti-cAMP antibody labeled with europium cryptate) and a non-specific phosphodiesterase inhibitor IBMX (3-isobutyl-1-methyl xanthine; final concentration 1 mM) were added. After 60 min, the fluorescence transfer related to the amount of remaining cAMP was measured on a microplate reader (Rubystar, BMG) at λex=337 nm, λem=620 nm and λem=665 nm. The enzyme activity is calculated from the ratio of the signals measured at 665 nm and 620 nm. The results are expressed as percent inhibition of the enzyme activity of the control (without PDE4 inhibitor). The enzyme was omitted for measurement of the basic control. The IC50 value (IC50=the concentration that caused the half-maximum inhibition of the specific activity of the control) is derived from dose-response measurements with eight different concentrations (n=2; repeated 2 times)

human recombinant PDE4B1 enzyme, sequence (Q07343 whole entry): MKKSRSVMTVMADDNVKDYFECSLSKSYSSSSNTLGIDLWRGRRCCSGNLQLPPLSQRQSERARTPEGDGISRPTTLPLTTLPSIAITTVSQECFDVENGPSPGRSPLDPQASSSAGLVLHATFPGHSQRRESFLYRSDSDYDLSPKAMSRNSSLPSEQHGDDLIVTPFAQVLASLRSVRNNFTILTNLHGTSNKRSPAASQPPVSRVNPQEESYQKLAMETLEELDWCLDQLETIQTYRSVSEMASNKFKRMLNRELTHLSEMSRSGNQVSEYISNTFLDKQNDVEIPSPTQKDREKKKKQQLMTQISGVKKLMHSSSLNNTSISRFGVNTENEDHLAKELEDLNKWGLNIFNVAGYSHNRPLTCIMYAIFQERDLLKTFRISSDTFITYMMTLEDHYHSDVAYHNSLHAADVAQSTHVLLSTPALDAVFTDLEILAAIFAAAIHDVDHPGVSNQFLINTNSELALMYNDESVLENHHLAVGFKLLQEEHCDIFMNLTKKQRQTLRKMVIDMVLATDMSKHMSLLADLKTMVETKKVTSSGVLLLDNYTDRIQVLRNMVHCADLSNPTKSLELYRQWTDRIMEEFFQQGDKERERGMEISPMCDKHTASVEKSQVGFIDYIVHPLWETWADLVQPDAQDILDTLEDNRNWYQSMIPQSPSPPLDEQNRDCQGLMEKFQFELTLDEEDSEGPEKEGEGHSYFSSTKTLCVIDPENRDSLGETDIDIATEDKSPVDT

| Compound | IC50 |
| --- | --- |
| COc1ccc(/C=C/n2c(C)cc(=O)cc2C)cc1OCS(C)(=O)=O [Example 76, (E)-1-(3-methylsulfonemethoxy-4-methoxystyryl)-2,6-dimethylpyridin-4(1H)-one] | 105 nM |
| COc1ccc(/C=C/n2c(C)cc(=O)cc2C)cc1OCC[S+](C)[O-] (stereo not shown) [Example 78, (E)-1-(3-methylsulfoxideethoxy-4-methoxystyryl)-2,6-dimethylpyridin-4(1H)-one] | 36 nM |
| COc1ccc(/C=C/n2c(C)cc(=O)cc2C)cc1OCCS(C)(=O)=O [Example 79, (E)-1-(3-methylsulfoneethoxy-4-methoxystyryl)-2,6-dimethylpyridin-4(1H)-one] | 160 nM |
| COc1ccc(/C=C/n2c(C)cc(=O)cc2C)cc1OC1CCS(=O)(=O)C1 (stereo not shown) [Example 81, (E)-1-(3-((1,1,-dioxotetrahydrothiophen-3-yl)oxy)-4-methoxystyryl)-2,6-dimethylpyridin-4(1H)-one] | 1.15 nM |
| COc1ccc(/C=C/n2c(C)cc(=O)cc2C)cc1O[C@H]1CCSC1 [Example 82, (S,E)-1-(3-(tetrahydrothiophen-3-yl)oxy-4-methoxystyryl)-2,6-dimethylpyridin-4(1H)-one] | 7.5 nM |
| COc1ccc(/C=C/n2c(C)cc(=O)cc2C)cc1O[C@H]1CCS(=O)(=O)C1 [Example 84, (S,E)-1-(3-((1,1-dioxotetrahydrothiophen-3-yl)oxy)-4-methoxy-styryl)-2,6-dimethylpyridin-4(1H)-one] | 230 nM |
| COc1ccc(/C=C/n2c(C)cc(=O)cc2C)cc1O[C@@H]1CCSC1 [Example 85, (R,E)-1-(3-(tetrahydrothiophen-3-yl)oxy-4-methoxystyryl)-2,6-dimethylpyridin-4(1H)-one] | 3.8 nM |
| COc1ccc(/C=C/n2c(C)cc(=O)cc2C)cc1O[C@@H]1CCS(=O)(=O)C1 [Example 87, (R,E)-1-(3-((1,1-dioxotetrahydrothiophen-3-yl)oxy)-4-methoxy-styryl)-2,6-dimethylpyridin-4(1H)-one] | 78 nM |
| COc1cc(/C=C/n2c(C)cc(=O)cc2C)ccc1OC(F)F [Example 89, (E)-1-(3-methoxy-4-difluoromethoxy-styryl)-2,6-dimethylpyridin-4(1H)-one] | 6.9 nM |
| CSCOc1cc(/C=C/n2c(C)cc(=O)cc2C)ccc1OC(F)F [Example 90, (E)-1-(3-methylthiomethoxy-4-difluoromethoxy-styryl)-2,6-dimethylpyridin-4(1H)-one] | 3.8 nM |
| Cc1cc(=O)cc(C)n1/C=C/c1ccc(OC(F)F)c(OC[S+](C)[O-])c1 (stereo not shown) [Example 91, (E)-1-(3-methylsulfoxidemethoxy-4-difluoromethoxystyryl)-2,6-dimethylpyridin-4(1H)-one] | 75 nM |
| Cc1cc(=O)cc(C)n1/C=C/c1ccc(OC(F)F)c(OCS(C)(=O)=O)c1 [Example 92, (E)-1-(3-methylsulfonemethoxy-4-difluoromethoxy-styryl)-2,6-dimethylpyridin-4(1H)-one] | 94 nM |
| CSCCOc1cc(/C=C/n2c(C)cc(=O)cc2C)ccc1OC(F)F [Example 93, (E)-1-(3-methylthioethoxy-4-difluoromethoxystyryl)-2,6-dimethylpyridin-4(1H)-one] | 12.9 nM |
| Cc1cc(=O)cc(C)n1/C=C/c1ccc(OC(F)F)c(OCC[S+](C)[O-])c1 (stereo not shown) [Example 94, (E)-1-(3-methylsulfoxideethoxy-4-difluoromethoxystyryl)-2,6-dimethylpyridin-4(1H)-one] | 137 nM |
| Cc1cc(=O)cc(C)n1/C=C/c1ccc(OC(F)F)c(OCCS(C)(=O)=O)c1 [Example 95, (E)-1-(3-methylsulfoneethoxy-4-difluoromethoxystyryl)-2,6-dimethylpyridin-4(1H)-one] | 260 nM |
| Cc1cc(=O)cc(C)n1/C=C/c1ccc(OC(F)F)c(OC2CCSC2)c1 (stereo not shown) [Example 96, (E)-1-((3-(tetrahydrothiophen-3-yl)oxy-4-difluoromethoxy)-styryl)-2,6-dimethylpyridin-4(1H)-one] | 2.4 nM |
| Cc1cc(=O)cc(C)n1/C=C/c1ccc(OC(F)F)c(O[C@H]2CCSC2)c1 [Example 97, (S,E)-1-(3-(tetrahydrothiophen-3-yl)oxy-4-difluoromethoxystyryl)-2,6-dimethylpyridin-4(1H)-one] | 3.7 nM |
| Cc1cc(=O)cc(C)n1/C=C/c1ccc(OC(F)F)c(O[C@H]2CCS(=O)(=O)C2)c1 [Example 99, (S,E)-1-(3-(1,1-dioxotetrahydrothiophen-3-yl)oxy-4-difluoromethoxystyryl)-2,6-dimethylpyridin-4(1H)-one] | 59 nM |
| Cc1cc(=O)cc(C)n1/C=C/c1ccc(OC(F)F)c(O[C@@H]2CCSC2)c1 [Example 100, (R,E)-1-(3-(tetrahydrothiophen-3-yl)oxy-4-difluoromethoxystyryl)-2,6-dimethylpyridin-4(1H)-one] | 1.5 nM |
| Cc1cc(=O)cc(C)n1/C=C/c1ccc(OC(F)F)c(O[C@@H]2CCS(=O)(=O)C2)c1 [Example 102, (R,E)-1-(3-(1,1-dioxotetrahydrothiophen-3-yl)oxy-4-difluoromethoxystyryl)-2,6-dimethylpyridin-4(1H)-one] | 50 nM |
| COc1ccc(/C(C)=C/n2c(C)cc(=O)cc2C)cc1OCC1CC1 [Example 103, (E)-1-(2-(3-cyclopropylmethoxy-4-methoxyphenyl)-2-methylethenyl)-2,6-dimethylpyridin-4(1H)-one] | 14 nM |
| COc1ccc(/C(=C/n2c(C)cc(=O)cc2C)c2ccccc2)cc1OCC1CC1 [Example 104-1, (E)-1-(2-(3-cyclopropylmethoxy-4-methoxyphenyl)-2-phenylethenyl)-2,6-dimethylpyridin-4(1H)-one] | 1700 nM |
| COc1ccc(/C(=C\n2c(C)cc(=O)cc2C)c2ccccc2)cc1OCC1CC1 [Example 104-2, (Z)-1-(2-(3-cyclopropylmethoxy-4-methoxyphenyl)-2-phenylethenyl)-2,6-dimethylpyridin-4(1H)-one] | 8400 nM |
| CC#C/C(=C\n1c(C)cc(=O)cc1C)c1ccc(OC)c(OCC2CC2)c1 [Example 105, (Z)-1-(2-(3-cyclopropylmethoxy-4-methoxyphenyl)pent-1-en-3-yn-1-yl)-2,6-dimethylpyridin-4(1H)-one] | 3 nM |

Other lines, results leading:

| IC50 | Compound |
| --- | --- |
| 450 nM | COc1ccc(/C(=C/n2c(C)cc(=O)cc2C)C(N)=O)cc1OCC1CC1 [Example 107, (Z)-2-(3-cyclopropylmethoxy-4-methoxyphenyl)-3-(2,6-dimethyl-4-carbonylpyridin-1(4H)-yl)-acrylamide] |
| 760 nM | CNC(=O)/C(=C\n1c(C)cc(=O)cc1C)c1ccc(OC)c(OCC2CC2)c1 [Example 108, (Z)-2-(3-cyclopropylmethoxy-4-methoxyphenyl)-3-(2,6-dimethyl-4-carbonylpyridin-1(4H)-yl)-N-methylacrylamide] |
| 180 nM | COc1ccc(/C(=C/n2c(C)cc(=O)cc2C)C(=O)N(C)C)cc1OCC1CC1 [Example 109, (Z)-2-(3-cyclopropylmethoxy-4-methoxyphenyl)-3-(2,6-dimethyl-4-carbonylpyridin-1(4H)-yl)-N,N-dimethylacrylamide] |
| 460 nM | CCN(CC)C(=O)/C(=C\n1c(C)cc(=O)cc1C)c1ccc(OC)c(OCC2CC2)c1 [Example 110, (Z)-2-(3-cyclopropylmethoxy-4-methoxyphenyl)-3-(2,6-dimethyl-4-carbonylpyridin-1(4H)-yl)-N,N-diethylacrylamide] |
| 138 nM | COC(=O)/C(=C\n1c(C)cc(=O)cc1C)c1ccc(OC)c(OCC2CC2)c1 [Example 112, (Z)-methyl 2-(3-cyclopropylmethoxy-4-methoxyphenyl)-3-(2,6-dimethyl-4-carbonylpyridin-1(4H)-yl)-acrylate] |
| 170 nM | CCOC(=O)/C(=C\n1c(C)cc(=O)cc1C)c1ccc(OC)c(OCC2CC2)c1 [Example 113, (Z)-ethyl 2-(3-cyclopropylmethoxy-4-methoxyphenyl)-3-(2,6-dimethyl-4-carbonylpyridin-1(4H)-yl)-acrylate] |
| 1.6 nM | CC#C/C(=C\n1c(C)cc(=O)cc1C)c1ccc(OC(F)F)c(OCC2CC2)c1 [Example 114, (Z)-1-(2-(3-cyclopropylmethoxy-4-difluoromethoxyphenyl)pent-1-en-3-yn-1-yl)-2,6-dimethylpyridin-4(1H)-one] |
| 9.9 nM | COc1ccc(/C(C#N)=C/n2c(C)cc(=O)cc2C)cc1OC [Example 115] |
| 3600 nM | COc1ccc(/C=C(\C(N)=O)n2c(C)cc(=O)cc2C)cc1OCC1CC1 [Example 117] |
| 320 nM | COc1ccc(/C=C(\C(=O)N(C)C)n2c(C)cc(=O)cc2C)cc1OCC1CC1 [Example 118] |
